For the first assay, the system named is Histamine release. The experiment in a line: Inhibition of histamine release from passively sensitized guinea pig lung suspension (Experiment 1). Type of assay: cell-based, Hartley guinea pig. The note with it: Cavia porcellus, 37° C, fluorometry, read-out: Release inhibitory rate, Histamine. The protocol: (§1) Hartley guinea pig (male, weighing about 400 g) was passively sensitized by an intravenous injection of anti-egg albumin guinea pig serum. 48 hours after the sensitization, the lung was taken out and cut finely to prepare a lung suspension. To the suspension were added a test compound and egg albumin, and the mixture was incubated at 37° C. After the reaction, the mixture was centrifuged, and then the amount of histamine and SRS-A in the supernatant was measured. The amount of histamine was measured by a fluorometry in accordance with the method of May et al [cf. J. Allerg., Vol. 40, page 12 (1970)]. The amount of SRS-A was measured by a bioassay using an isolated guinea pig ileum. That is, the guinea pig ileum was suspended within Magnus vessel, and thereto were added an antihistaminic, an antiacetylcholine agent and a test solution, and based on the shrink of guinea pig ileum, the amount of SRS-A was calculated.
Regarding `O=C(O)C(=O)Nc1cc(N2CCOCC2)nc(NC(=O)C(=O)O)n1` [6-morpholinopyrimidine-2,4-dioxamic acid hydrate], the inhibition at 100 µM was 21.2%.
The same measure, in the same setting: the result for `O=C(O)C(=O)Nc1cc(N2CCCCC2)nc(NC(=O)C(=O)O)n1` [6-piperidinopyrimidine-2,4-dioxamic acid hydrate] reads 20.5%.
In the case of `CCCOC(=O)C(=O)Nc1cc(N2CCOCC2)nc(NC(=O)C(=O)OCCC)n1` [di-n-propyl 6-morpholinopyrimidine-2,4-dioxamate], the inhibition at 100 µM was 29.8%.
Same read-out and setting: the result for `CCCOC(=O)C(=O)Nc1cc(N2CCCCC2)nc(NC(=O)C(=O)OCCC)n1` [di-n-propyl 6-piperidinopyrimidine-2,4-dioxamate] reads 31.6%; that for `O=C(Nc1cc(N2CCOCC2)nc(NC(=O)C(=O)OCc2ccccc2)n1)C(=O)OCc1ccccc1` [dibenzyl 6-morpholinopyrimidine-2,4-dioxamate], 31.1%; that for `O=C(Nc1cc(N2CCCCC2)nc(NC(=O)C(=O)OCc2ccccc2)n1)C(=O)OCc1ccccc1` [dibenzyl 6-piperidinopyrimidine-2,4-dioxamate semihydrate], 26.5%.
Same read-out and setting: the result for `CCOC(=O)C(=O)Nc1cc(Cl)nc(NC(=O)C(=O)OCC)n1` [diethyl 4-chloropyrimidine-2,6-dioxamate monohydrate] reads 24.5%; that for `CCOC(=O)C(=O)Nc1cc(N2CCN(C)CC2)nc(NC(=O)C(=O)OCC)n1` [diethyl 6-(4-methylpiperazino)pyrimidine-2,4-dioxamate], 23.7%.
In the case of `CCOC(=O)C(=O)Nc1cc(OC)nc(NC(=O)C(=O)OCC)n1` [diethyl 6-methoxypyrimidine-2,4-dioxamate monohydrate], the inhibition at 100 µM was determined as 44.2%.
On the same count and under the same terms, the value for `CCOC(=O)C(=O)Nc1cc(N2CCOCC2)nc(NC(=O)C(=O)OCC)n1` [diethyl 6-morpholinopyrimidine-2,4-dioxamate] was 36.2%; that for `CCOC(=O)C(=O)Nc1cc(N2CCCCC2)nc(NC(=O)C(=O)OCC)n1` [diethyl 6-piperidinopyrimidine-2,4-dioxamate] was 12.2%.
The same measure, in the same setting: the value for `CCOC(=O)C(=O)Nc1cc(N2CCCC2)nc(NC(=O)C(=O)OCC)n1` [diethyl 6-pyrrolidinopyrimidine-2,4-dioxamate] was 16.1%.
On to `CC(C)OC(=O)C(=O)Nc1cc(N2CCOCC2)nc(NC(=O)C(=O)OC(C)C)n1` [diisopropyl 6-morpholinopyrimidine-2,4-dioxamate], for which the inhibition at 100 µM stood at 30.8%.
On the same count and under the same terms, the result for `COC(=O)C(=O)Nc1cc(N2CCCCCC2)nc(NC(=O)C(=O)OC)n1` [dimethyl 6-homopiperidinopyrimidine-2,4-dioxamate] reads 26.3%; that for `COC(=O)C(=O)Nc1cc(N2CCOCC2)nc(NC(=O)C(=O)OC)n1` [dimethyl 6-morpholinopyrimidine-2,4-dioxamate], 27.7%.
The same measure, in the same setting: the value for `COC(=O)C(=O)Nc1cc(N2CCCCC2)nc(NC(=O)C(=O)OC)n1` [dimethyl 6-piperidinopyrimidine-2,4-dioxamate] was 32.1%.
On the same count and under the same terms, the result for `COC(=O)C(=O)Nc1cc(N2CCCC2)nc(NC(=O)C(=O)OC)n1` [dimethyl 6-pyrrolidinopyrimidine-2,4-dioxamate] reads 19.9%.

The test system of a further assay is SRS-A release. As to the kind of experiment: Inhibition of SRS-A release from passively sensitized guinea pig lung suspension, bioassay on isolated guinea pig ileum (Experiment 1). The class given is cell-based, Hartley guinea pig. The note with it: Cavia porcellus, 37° C, read-out: Release inhibitory rate, SRS-A. The protocol: as §1
Take `O=C(O)C(=O)Nc1cc(N2CCOCC2)nc(NC(=O)C(=O)O)n1` [6-morpholinopyrimidine-2,4-dioxamic acid hydrate]: the inhibition at 100 µM was found to be 47.3%.
The same measure, in the same setting: the value for `O=C(O)C(=O)Nc1cc(N2CCCCC2)nc(NC(=O)C(=O)O)n1` [6-piperidinopyrimidine-2,4-dioxamic acid hydrate] was 43.2%.
The same measure, in the same setting: the value for `CCCOC(=O)C(=O)Nc1cc(N2CCOCC2)nc(NC(=O)C(=O)OCCC)n1` [di-n-propyl 6-morpholinopyrimidine-2,4-dioxamate] was 50%; that for `CCCOC(=O)C(=O)Nc1cc(N2CCCCC2)nc(NC(=O)C(=O)OCCC)n1` [di-n-propyl 6-piperidinopyrimidine-2,4-dioxamate] was 52.3%; that for `O=C(Nc1cc(N2CCOCC2)nc(NC(=O)C(=O)OCc2ccccc2)n1)C(=O)OCc1ccccc1` [dibenzyl 6-morpholinopyrimidine-2,4-dioxamate] was 52.6%.
For `O=C(Nc1cc(N2CCCCC2)nc(NC(=O)C(=O)OCc2ccccc2)n1)C(=O)OCc1ccccc1` [dibenzyl 6-piperidinopyrimidine-2,4-dioxamate semihydrate], the inhibition at 100 µM is 48.6%.
The same measure, in the same setting: the value for `CCOC(=O)C(=O)Nc1cc(Cl)nc(NC(=O)C(=O)OCC)n1` [diethyl 4-chloropyrimidine-2,6-dioxamate monohydrate] was 52.7%; that for `CCOC(=O)C(=O)Nc1cc(N2CCN(C)CC2)nc(NC(=O)C(=O)OCC)n1` [diethyl 6-(4-methylpiperazino)pyrimidine-2,4-dioxamate] was 33.3%; that for `CCOC(=O)C(=O)Nc1cc(OC)nc(NC(=O)C(=O)OCC)n1` [diethyl 6-methoxypyrimidine-2,4-dioxamate monohydrate] was 57.6%.
Still for that read-out and setting: the result for `CCOC(=O)C(=O)Nc1cc(N2CCOCC2)nc(NC(=O)C(=O)OCC)n1` [diethyl 6-morpholinopyrimidine-2,4-dioxamate] reads 52.6%; that for `CCOC(=O)C(=O)Nc1cc(N2CCCCC2)nc(NC(=O)C(=O)OCC)n1` [diethyl 6-piperidinopyrimidine-2,4-dioxamate], 46.6%; that for `CCOC(=O)C(=O)Nc1cc(N2CCCC2)nc(NC(=O)C(=O)OCC)n1` [diethyl 6-pyrrolidinopyrimidine-2,4-dioxamate], 32.8%.
On the same count and under the same terms, the result for `CC(C)OC(=O)C(=O)Nc1cc(N2CCOCC2)nc(NC(=O)C(=O)OC(C)C)n1` [diisopropyl 6-morpholinopyrimidine-2,4-dioxamate] reads 59.9%; that for `COC(=O)C(=O)Nc1cc(N2CCCCCC2)nc(NC(=O)C(=O)OC)n1` [dimethyl 6-homopiperidinopyrimidine-2,4-dioxamate], 49.2%.
Take `COC(=O)C(=O)Nc1cc(N2CCOCC2)nc(NC(=O)C(=O)OC)n1` [dimethyl 6-morpholinopyrimidine-2,4-dioxamate]: the inhibition at 100 µM came to 47.3%.
The same measure, in the same setting: the result for `COC(=O)C(=O)Nc1cc(N2CCCCC2)nc(NC(=O)C(=O)OC)n1` [dimethyl 6-piperidinopyrimidine-2,4-dioxamate] reads 50%; that for `COC(=O)C(=O)Nc1cc(N2CCCC2)nc(NC(=O)C(=O)OC)n1` [dimethyl 6-pyrrolidinopyrimidine-2,4-dioxamate], 40.2%.

A further assay relates to PCA (passive cutaneous anaphylaxis). The experiment in a line: Passive cutaneous anaphylaxis (PCA) inhibition in rats (Experiment 2). The note with it: Rattus norvegicus, 1 h; 30 mg/kg oral, one hour before antigen challenge; six rats (Table 3); read-out: PCA inhibitory rate. Type of assay: in vivo, Wistar rats. On the procedure:
Wistar rats (male, weighing about 200 g) were passively sensitized by an intradermal injection of each 0.1 ml of anti-egg albumin rat serum both sides of median line on back of the animals (each two points, totally 4 points). After 48 hours, a mixture (1 ml) of egg albumin and Evans blue was injected via tail vein, by which PCA (passive cutaneous anaphylaxis) was induced. After 30 minutes, the blue colored region was cut out and the amount of color was measured by the method of Katayama et al [cf. Microbiol. Immunol., Vol. 22, page 89 (1978)]. One hour before the induction of PCA, each test compound was orally administered to six rats at a dose of 200 mg/kg per each rat.
In the above experiments, the test compound was orally administered to six rats at a dose of 30 mg/kg per each rat one hour before the antigen challenge.
In the above experiments, the test compound was orally administered to six rats at a dose of 30 mg/kg per each rat 30 minutes before the antigen challenge.
In the above experiments, the test compound was intravenously administered to six rats at a dose of 3 mg/kg per each rat 5 minutes before the antigen challenge.
For the compound `COC(=O)C(=O)Nc1cc(N2CCCCCC2)nc(NC(=O)C(=O)OC)n1` [dimethyl 6-homopiperidinopyrimidine-2,4-dioxamate], the inhibition in vivo at 30 mg/kg amounted to 76.9%.
Take `COC(=O)C(=O)Nc1cc(N2CCOCC2)nc(NC(=O)C(=O)OC)n1` [dimethyl 6-morpholinopyrimidine-2,4-dioxamate]: the inhibition in vivo at 30 mg/kg is 98.5%.
Same read-out and setting: the result for `COC(=O)C(=O)Nc1cc(N2CCCC2)nc(NC(=O)C(=O)OC)n1` [dimethyl 6-pyrrolidinopyrimidine-2,4-dioxamate] reads 81.2%.

Still in this assay, the particulars now being: Rattus norvegicus, 1 h; 200 mg/kg oral, one hour before induction of PCA; six rats (Table 2); read-out: PCA inhibitory rate.
On to `CCOC(=O)C(=O)Nc1cc(Cl)nc(NC(=O)C(=O)OCC)n1` [diethyl 4-chloropyrimidine-2,6-dioxamate monohydrate], for which the inhibition in vivo at 200 mg/kg stood at 41.7%.
The same measure, in the same setting: the value for `CCOC(=O)C(=O)Nc1cc(OC)nc(NC(=O)C(=O)OCC)n1` [diethyl 6-methoxypyrimidine-2,4-dioxamate monohydrate] was 83.4%; that for `CCOC(=O)C(=O)Nc1cc(N2CCOCC2)nc(NC(=O)C(=O)OCC)n1` [diethyl 6-morpholinopyrimidine-2,4-dioxamate] was 96.6%; that for `CCOC(=O)C(=O)Nc1cc(N2CCCCC2)nc(NC(=O)C(=O)OCC)n1` [diethyl 6-piperidinopyrimidine-2,4-dioxamate] was 92.4%.
Same read-out and setting: the result for `CCOC(=O)C(=O)Nc1cc(N2CCCC2)nc(NC(=O)C(=O)OCC)n1` [diethyl 6-pyrrolidinopyrimidine-2,4-dioxamate] reads 87.3%; that for `COC(=O)C(=O)Nc1cc(N2CCCCC2)nc(NC(=O)C(=O)OC)n1` [dimethyl 6-piperidinopyrimidine-2,4-dioxamate], 85.6%.

The assay is the same for the next values; noted with them: Rattus norvegicus; 3 mg/kg intravenous, 5 minutes before antigen challenge; six rats (Table 5); read-out: PCA inhibitory rate.
With `O=C(O)C(=O)Nc1cc(N2CCOCC2)nc(NC(=O)C(=O)O)n1` [6-morpholinopyrimidine-2,4-dioxamic acid hydrate], the inhibition in vivo at 3 mg/kg was determined as 100%.
On the same count and under the same terms, the value for `O=C(O)C(=O)Nc1cc(N2CCCCC2)nc(NC(=O)C(=O)O)n1` [6-piperidinopyrimidine-2,4-dioxamic acid hydrate] was 100%.
The same measure, in the same setting: the result for `CCOC(=O)C(=O)Nc1cc(N2CCCCC2)nc(NC(=O)C(=O)OCC)n1` [diethyl 6-piperidinopyrimidine-2,4-dioxamate] reads 100%; that for `CC(C)OC(=O)C(=O)Nc1cc(N2CCOCC2)nc(NC(=O)C(=O)OC(C)C)n1` [diisopropyl 6-morpholinopyrimidine-2,4-dioxamate], 100%; that for `COC(=O)C(=O)Nc1cc(N2CCOCC2)nc(NC(=O)C(=O)OC)n1` [dimethyl 6-morpholinopyrimidine-2,4-dioxamate], 100%.

Staying with this assay, now noted: Rattus norvegicus; 30 mg/kg oral, 30 minutes before antigen challenge; six rats (Table 4); read-out: PCA inhibitory rate.
`CCOC(=O)C(=O)Nc1cc(N2CCOCC2)nc(NC(=O)C(=O)OCC)n1` [diethyl 6-morpholinopyrimidine-2,4-dioxamate]: the inhibition in vivo at 30 mg/kg is 91.7%.
On the same count and under the same terms, the result for `CCOC(=O)C(=O)Nc1cc(N2CCCCC2)nc(NC(=O)C(=O)OCC)n1` [diethyl 6-piperidinopyrimidine-2,4-dioxamate] reads 90.6%; that for `CCOC(=O)C(=O)Nc1cc(N2CCCC2)nc(NC(=O)C(=O)OCC)n1` [diethyl 6-pyrrolidinopyrimidine-2,4-dioxamate], 73.1%.
Same read-out and setting: the value for `COC(=O)C(=O)Nc1cc(N2CCCCC2)nc(NC(=O)C(=O)OC)n1` [dimethyl 6-piperidinopyrimidine-2,4-dioxamate] was 54.4%.

Values taken from patent publication US4729995A, “Pyrimidine 2,4-dioxamate compounds and pharmaceutical compositions” (Toyo Boseki Kabushiki Kaisha, priority 1986, dated 1988).
